Reference: patent publication US20070219212A1, “Pyranouidole Derivatives and the Use Thereof for the Treatment of Hepatitis C Virus Infection or Disease” (priority 2004, published 2007)
Read-outs that look alike come from different tables or passages of the source.

How the values were obtained:
[1] = biological target: T1, NS5B from the BK strain (genotype 1b) (Hepatitis C virus genotype 1b, UniProt P26663); assay: Hepatitis C polymerase (NS5B, BK strain) inhibition, radioactive filter assay; format: biochemical; conditions: NS5B BK strain (genotype 1b)
T1 construct: NS5B from the BK strain (genotype 1b) is expressed in E coli as a protein in which the 21 C-terminal amino acids are replaced; made in house; host or cells: E. coli
T1 sequence (P26663 2420-2989): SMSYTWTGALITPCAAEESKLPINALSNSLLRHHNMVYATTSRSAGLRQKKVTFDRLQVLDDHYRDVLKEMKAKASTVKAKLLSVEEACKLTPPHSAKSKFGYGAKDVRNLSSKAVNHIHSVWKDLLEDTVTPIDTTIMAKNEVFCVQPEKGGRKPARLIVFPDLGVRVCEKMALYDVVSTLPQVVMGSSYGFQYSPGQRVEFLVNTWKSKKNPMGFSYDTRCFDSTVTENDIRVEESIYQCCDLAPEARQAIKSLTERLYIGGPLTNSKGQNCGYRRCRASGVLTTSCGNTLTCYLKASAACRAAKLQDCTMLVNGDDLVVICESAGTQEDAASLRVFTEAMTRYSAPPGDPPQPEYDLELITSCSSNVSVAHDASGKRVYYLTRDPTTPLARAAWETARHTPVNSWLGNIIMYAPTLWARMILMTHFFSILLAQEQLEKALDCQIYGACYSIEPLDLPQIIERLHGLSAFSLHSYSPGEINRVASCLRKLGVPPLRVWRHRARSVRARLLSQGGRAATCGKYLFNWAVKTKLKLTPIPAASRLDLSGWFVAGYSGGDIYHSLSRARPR
Excerpt: (§1) The ability of the compounds of the present invention to inhibit Hepatitis C Polymerase was established by the following experimental procedure:
NS5B from the BK strain (genotype 1b) is expressed in E coli as a protein in which the 21 C-terminal amino acids are replaced with a short linker and a hexahistidine tag ([…]). The purified protein is mixed with radioactive nucleotides and allowed to replicate a heteropolymeric RNA substrate, primed by an endogenous short hairpin, resulting in an approximately 760 nt product. The radioactive product is captured on a filter and quantitated after removal of the unincorporated nucleotides.
(§2) • 0.5M Na Phosphate buffer. Per liter, weigh 134 gr Na2HPO4.7H2O, add water to 900 ml. Adjust pH to 7.0 with phosphoric acid. Top off with water to 1 L. • Dilute nucleotides 1:1000 to 10 μM (GTP and CTP) or 1:100 to 100 μM (ATP and UTP) into RNase free water. Procedure: • (1) Compounds 10 μl at […] in 15% dimethylsulfoxide (DMSO) When starting from 100 μg/ml compound stock in 1% DMSO: Dispense 5 μl 30% DMSO per well Dispense 5 μl compound (100 μg/ml) per well. When starting from 50 μg/ml compound stock in 15% DMSO: Add 10 μl compound per well.
(§3) Add 20 μl enzyme mix into each well of the assay plate. Incubate compound and enzyme at room temperature for 15 minutes • (3) Template mix—prepare ahead
(§4) Spin down a tube of RNA (5 μg/tube stored in 75% ethanol and 0.3 M sodium acetate) in a microcentrifuge for 20 minutes at 4° C. One tube is enough for 1-1.5 plates. Remove as much ethanol from the tube as possible by inverting the tube. Be gentle, pellet RNA may not adhere to the tube. Vacuum dry the RNA. Resuspend the RNA by adding 1 ml of DEPC water, close the cap of the tube tightly. To dissolve RNA, incubate RNA solution on ice for ˜60 minutes and gently vortex. Spin briefly to ensure all RNA solution is down to the bottom of the tube before opening cap. Gently transfer RNA solution into a 5 ml or larger tube. Add another 3 ml of DEPC water (total 4 ml of volume).
(§5) Add the following volumes of reagents
(§6) Add 20 μl template mix per reaction (i.e. 20 ng of pOF per reaction or ˜3 nM) • (4) Incubate reaction at room temperature (22-25° C.) for 2 hours. • (5) Stop reaction by adding 50 μl of 170 mM EDTA.
(§7) Final concentration of EDTA is 85 mM. • (6) Prewet filters of Millipore multiscreen assay plate by adding 200 μl of 0.5 M sodium phosphate buffer, pH 7.0 into each well. Let stand at room temperature for 2-3 minutes. • (7) Place the multiscreen filter plate onto a Millipore Manifold and turn on vacuum to allow buffer to flow through. Turn off vacuum. Transfer 80 μl of the reaction product into each well of the filter plate. Let stand for 2-3 minutes. Turn on vacuum to filter reaction product. • (8) Turn off vacuum. Add 200 μl of 0.5 M sodium phosphate buffer, pH 7.0 into each well to wash filter. Turn on vacuum.
(§8) Repeat step (8) three more times. • (9) Remove polypropylene bottom. Spot dry filter at the bottom with paper towel. Air dry filter plate on a bench for 1 hour. Add 40 μl Super Mix scintillant. Seal top of the plate with a tape. Place plate into a Packard carrier or micro-beta carrier. • (10) Count plate using a Packard Topcount or micro-beta counter. Count (for example using Program 10) for ^33P in Top count or ^33P program in micro-beta.
(§9) See, Ferrari et al. 1999. J. Virology 73:1649-1654: “Characterization of soluble Hepatitis C virus RNA-dependent RNA polymerase expressed in E. coli and Takamizawa et al. 1991” and J. Virology 65:1105-1113: “Structure and characterization of the Hepatitis C virus genome isolated from human carriers,” both references are hereby incorporated by reference.

[2] = biological target: BB7 RNA-dependent RNA polymerase hepatitis C virus protein (Con1 HCV sequence) (Hepatitis C virus genotype 1b, UniProt Q9WMX2); assay: Hepatitis C polymerase (BB7) inhibition; format: biochemical
Chain of BB7 RNA-dependent RNA polymerase hepatitis C virus protein (Con1 HCV sequence) (Q9WMX2 2420-3010): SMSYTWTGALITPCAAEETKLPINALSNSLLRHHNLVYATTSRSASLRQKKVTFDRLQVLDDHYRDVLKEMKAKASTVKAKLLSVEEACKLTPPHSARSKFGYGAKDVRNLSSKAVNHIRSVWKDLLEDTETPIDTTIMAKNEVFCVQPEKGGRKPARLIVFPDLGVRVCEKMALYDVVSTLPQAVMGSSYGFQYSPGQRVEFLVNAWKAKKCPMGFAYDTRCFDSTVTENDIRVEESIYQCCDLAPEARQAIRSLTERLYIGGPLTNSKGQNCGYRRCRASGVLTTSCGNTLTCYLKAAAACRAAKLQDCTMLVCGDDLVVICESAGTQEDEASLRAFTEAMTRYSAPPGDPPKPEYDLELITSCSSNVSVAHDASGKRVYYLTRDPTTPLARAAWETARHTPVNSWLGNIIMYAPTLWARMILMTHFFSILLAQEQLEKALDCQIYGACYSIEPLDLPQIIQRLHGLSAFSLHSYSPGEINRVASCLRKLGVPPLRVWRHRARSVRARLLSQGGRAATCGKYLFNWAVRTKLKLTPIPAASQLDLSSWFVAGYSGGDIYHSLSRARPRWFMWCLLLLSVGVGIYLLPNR
Excerpt: For purposes of this invention, the term “BB7” denotes an RNA-dependent RNA polymerase hepatitis C virus protein sequence which is derived from HCV replicon. A discussion of BB7 and related technology can be found in Blight, K. et al. (2000) Science 290:1972-1974. BB7 can be licensed from Apath, LLC (893 North Warson Road, Saint Louis Mo. 63141, USA). BB7 is also referred to as Con1 HCV sequence and discussions of Con1 can be found in the following references: Lohmann, V. et al. (1999) Science 285:110-113; Pietschmann, T. et al. (2001) J. Virol. […]:1252-1264; Lohmann, V. et al. (2001) J. Virol. 75:1437-1449.
as §1, §2, §3, §4, §5, §6, §7, §8, §9

[3] = BB7 (Con1) NS5B, read-out: BB7 IC50

Compound: CCCC1(CC(=O)O)OCCc2c1[nH]c1c(C)c(OCc3cc(C(F)(F)F)n(C)n3)cc(C#N)c21 (stereo not drawn) [Example 126]
- IC50 [1]: < 0.5 µM
- IC50 [2]: < 0.5 µM

Compound: CCCC1(CC(=O)O)OCCc2c1[nH]c1c(C)c(OCC3CCN(S(C)(=O)=O)CC3)cc(C#N)c21 (stereo not drawn) [Example 122]
- IC50 [1]: < 0.5 µM
- IC50 [2]: < 0.5 µM

Compound: CCCC1(CC(=O)O)OCCc2c1[nH]c1c(C)c(CO[C@H]3CCOC3)cc(C#N)c21 (mixture of isomers) [Example 13, (3′S,1S*)[5-Cyano-8-methyl-1-propyl-7-(tetrahydro-furan-3-yloxymethyl)-1,3,4,9-tetrahydro-pyrano[3,4-b]indol-1-yl]-acetic acid]
- IC50 [1]: 0.5 to 5 µM
- IC50 [2]: 0.5 to 5 µM

Compound: CCCC1(CC(=O)O)OCCc2c1[nH]c1c(C)c(OCc3ccnc(COC)c3)cc(C#N)c21 (stereo not drawn) [Example 94]
- IC50 [1]: < 0.5 µM
- IC50 [2, 3]: < 0.5 µM

Compound: CCCC1(CC(=O)O)OCCc2c1[nH]c1c(C)c(OCC(C)OC)cc(C#N)c21 (stereo not drawn) [Example 121]
- IC50 [1]: < 0.5 µM
- IC50 [2]: < 0.5 µM

Compound: CCCC1(CC(=O)O)OCCc2c1[nH]c1c(C)c(COC3CCC3)cc(C#N)c21 (stereo not drawn) [Example 6, (5-Cyano-7-cyclobutoxymethyl-8-methyl-1-propyl-1,3,4,9-tetrahydro-pyrano[3,4-b]indol-1-yl)-acetic acid]
- IC50 [1]: 0.5 to 5 µM
- IC50 [2]: < 0.5 µM

Compound: CCOCCOc1cc(C#N)c2c3c([nH]c2c1C)C(CC(=O)O)([C@@H](C)CC)OCC3 (mixture of isomers) [Example 33, (1R*,10S)-[1-sec-Butyl-5-cyano-7-(2-ethoxy-ethoxy)-8-methyl-1,3,4,9-tetrahydro-pyrano[3,4-b]indol-1-yl]-acetic acid]
- IC50 [1]: < 0.5 µM
- IC50 [2]: < 0.5 µM

Compound: CCCC1(CC(=O)O)OCCc2c1[nH]c1c(C)c(COCC3CC3)cc(C#N)c21 (stereo not drawn) [Example 8, (5-Cyano-7-cyclopropylmethoxymethyl-8-methyl-1-propyl-1,3,4,9-tetrahydro-pyrano[3,4-b]indol-1-yl)-acetic acid]
- IC50 [1]: 0.5 to 5 µM
- IC50 [2]: < 0.5 µM

Compound: CCCC1(CC(=O)O)OCCc2c1[nH]c1c(C)c(COCC3CCC3)cc(C#N)c21 (stereo not drawn) [Example 9, (5-Cyano-7-cyclobutylmethoxymethyl-8-methyl-1-propyl-1,3,4,9-tetrahydro-pyrano[3,4-b]indol-1-yl)-acetic acid]
- IC50 [1]: 0.5 to 5 µM
- IC50 [2]: 0.5 to 5 µM

Compound: CCC[C@@]1(CC(=O)O)OCCc2c1[nH]c1c(C)c(OCc3cc(C)on3)cc(C#N)c21 [Example 57]
- IC50 [1]: > 5 µM
- IC50 [2]: 0.5 to 5 µM

Compound: CCCC1(CC(=O)O)OCCc2c1[nH]c1c(C)c(OCCCS(C)(=O)=O)cc(C#N)c21 (stereo not drawn) [Example 143]
- IC50 [1]: < 0.5 µM
- IC50 [2, 3]: < 0.5 µM

Compound: CCCC1(CC(=O)O)OCCc2c1[nH]c1c(C)c(OCc3cccnc3)cc(C#N)c21 (stereo not drawn) [Example 41]
- IC50 [1]: < 0.5 µM
- IC50 [2]: < 0.5 µM

Compound: CCCC1(CC(=O)O)OCCc2c1[nH]c1c(C)c(OCCCc3cc(C)no3)cc(C#N)c21 (stereo not drawn) [Example 89]
- IC50 [1]: < 0.5 µM
- IC50 [2]: < 0.5 µM

Compound: CCC[C@]1(CC(=O)O)OCCc2c1[nH]c1c(C)c(OCc3nnc(C)s3)cc(C#N)c21 [Example 29, (R)-[5-Cyano-8-methyl-7-(5-methyl-[1,3,4]thiadiazol-2-ylmethoxy)-1-propyl-1,3,4,9-tetrahydro-pyrano[3,4-b]indol-1-yl]-acetic acid]
- IC50 [1]: < 0.5 µM
- IC50 [2]: < 0.5 µM

Compound: CCCC1(CC(=O)O)OCCc2c1[nH]c1c(C)c(OCc3ccc(C)nc3)cc(C#N)c21 (stereo not drawn) [Example 70]
- IC50 [1]: < 0.5 µM
- IC50 [2]: < 0.5 µM

Compound: CCC[C@@]1(CC(=O)O)OCCc2c1[nH]c1c(C)c(O)cc(C#N)c21 [Example 47]
- IC50 [1]: > 5 µM
- IC50 [2]: 0.5 to 5 µM

Compound: CCCC1(CC(=O)O)OCCc2c1[nH]c1c(C)c(OC[C@@H]3CCC(=O)N3)cc(C#N)c21 (stereo partly drawn) [Example 97]
- IC50 [1]: < 0.5 µM
- IC50 [2]: < 0.5 µM

Compound: CCCC1(CC(=O)O)OCCc2c1[nH]c1c(C)c(OCC(C)=O)cc(C#N)c21 (stereo not drawn) [Example 98]
- IC50 [1]: 0.5 to 5 µM
- IC50 [2]: < 0.5 µM

Compound: CCCC1(CC(=O)O)OCCc2c1[nH]c1c(C)c(OCc3nsc(N(CC)CC)n3)cc(C#N)c21 (stereo not drawn) [Example 132]
- IC50 [1]: < 0.5 µM
- IC50 [2]: < 0.5 µM

Compound: CCCC1(CC(=O)O)OCCc2c1[nH]c1c(C)c(OCCCOC)cc(C#N)c21 (stereo not drawn) [Example 119]
- IC50 [1]: < 0.5 µM
- IC50 [2]: < 0.5 µM

Compound: CCCC1(CC(=O)O)OCCc2c1[nH]c1c(C)c(COc3cccc(F)c3)cc(C#N)c21 (stereo not drawn) [Example 21, [5-Cyano-7-(3-fluoro-phenoxymethyl)-8-methyl-1-propyl-1,3,4,9-tetrahydro-pyrano[3,4-b]indol-1-yl]-acetic acid]
- IC50 [1]: < 0.5 µM
- IC50 [2]: < 0.5 µM

Compound: CCCC1(CC(=O)O)OCCc2c1[nH]c1c(C)c(OCc3cc(C)nc(C)c3)cc(C#N)c21 (stereo not drawn) [Example 109]
- IC50 [1]: < 0.5 µM
- IC50 [2, 3]: < 0.5 µM

Compound: CCC[C@]1(CC(=O)O)OCCc2c1[nH]c1c(C)c(O)cc(C#N)c21 [Example 46]
- IC50 [1]: < 0.5 µM
- IC50 [2]: < 0.5 µM

Compound: CCCC1(CC(=O)O)OCCc2c1[nH]c1c(C)c(COc3ccccc3)cc(C#N)c21 (stereo not drawn) [Example 20, (5-Cyano-8-methyl-7-phenoxymethyl-1-propyl-1,3,4,9-tetrahydro-pyrano[3,4-b]indol-1-yl)-acetic acid]
- IC50 [1]: 0.5 to 5 µM
- IC50 [2]: 0.5 to 5 µM

Compound: CCCC1(CC(=O)O)OCCc2c1[nH]c1c(C)c(OCc3csc(C(C)(C)C)n3)cc(C#N)c21 (stereo not drawn) [Example 85]
- IC50 [1]: < 0.5 µM
- IC50 [2]: < 0.5 µM

Compound: CCCC1(CC(=O)O)OCCc2c1[nH]c1c(C)c(OCCCc3cc(C)on3)cc(C#N)c21 (stereo not drawn) [Example 135]
- IC50 [1]: < 0.5 µM
- IC50 [2]: < 0.5 µM

Compound: CCCC1(CC(=O)O)OCCc2c1[nH]c1c(C)c(OCc3ccn(CC)n3)cc(C#N)c21 (stereo not drawn) [Example 137]
- IC50 [1]: < 0.5 µM
- IC50 [2]: < 0.5 µM

Compound: CCCC1(CC(=O)O)OCCc2c1[nH]c1c(C)c(OCc3nnnn3C)cc(C#N)c21 (stereo not drawn) [Example 116]
- IC50 [1]: < 0.5 µM
- IC50 [2]: < 0.5 µM

Compound: CCCC1(CC(=O)O)OCCc2c1[nH]c1c(C)c(OCCN(C)Cc3ccccc3)cc(C#N)c21 (stereo not drawn) [Example 114]
- IC50 [1]: < 0.5 µM
- IC50 [2]: < 0.5 µM

Compound: CCCC1(CC(=O)O)OCCc2c1[nH]c1c(C)c(OCCOCC3CC3)cc(C#N)c21 (stereo not drawn) [Example 120]
- IC50 [1]: < 0.5 µM
- IC50 [2, 3]: < 0.5 µM

Compound: CCCC1(CC(=O)O)OCCc2c1[nH]c1c(C)c(COCc3sc(C)nc3C)cc(C#N)c21 (stereo not drawn) [Example 19, [5-Cyano-7-(2,4-dimethyl-thiazol-5-ylmethoxymethyl)-8-methyl-1-propyl-1,3,4,9-tetrahydro-pyrano[3,4-b]indol-1-yl]-acetic acid]
- IC50 [1]: 0.5 to 5 µM
- IC50 [2]: 0.5 to 5 µM

Compound: CCCC1(CC(=O)O)OCCc2c1[nH]c1c(C)c(OCc3cc(C)on3)cc(C#N)c21 (stereo not drawn) [Example 56]
- IC50 [1]: < 0.5 µM
- IC50 [2]: < 0.5 µM

Compound: CCCC1(CC(=O)O)OCCc2c1[nH]c1c(C)c(OCC(C)=NOCC)cc(C#N)c21 (stereo not drawn) [Example 105]
- IC50 [1]: < 0.5 µM
- IC50 ([2]; read-out: BB7 IC50, BB7 (Con1) NS5B): < 0.5 µM
